According to patent US20230372331A1, “PHARMACEUTICAL COMPOSITION” (ANXO PHARMACEUTICAL CO., LTD., priority 2022, published 2023):
Structures can show the parent of a compound that is named as a salt.

Assay: Solubility of cariprazine forms in acetate medium
Assay type: physicochemical
Source text: Different drug solubilities of cariprazine HCl and cariprazine base could be the reason to affect the release of cariprazine in the pharmaceutical compositions. […] The release profile of cariprazine in pharmaceutical composition with combo cariprazine base and cariprazine HCl were between pharmaceutical compositions B-752H-TF8-N and C-752H-TF8-N.

## CN(C)C(=O)N[C@H]1CC[C@H](CCN2CCN(c3cccc(Cl)c3Cl)CC2)CC1 [Cariprazine HCl, cariprazine HCl]
  solubility in acetate medium (in words): higher solubility in acetate medium than cariprazine base
